{"source": "patent US7323319B2", "about": "“RNA containing coenzymes, biotin, or fluorophores, and methods for their preparation and use” (The University of Southern Mississippi, priority 2003, dated 2008)", "key": {"T7 RNA polymerase [1]": {"biological_target": "T1, T7 RNA polymerase (Escherichia phage T7, UniProt P00573)", "T1 sequence (P00573 whole entry)": "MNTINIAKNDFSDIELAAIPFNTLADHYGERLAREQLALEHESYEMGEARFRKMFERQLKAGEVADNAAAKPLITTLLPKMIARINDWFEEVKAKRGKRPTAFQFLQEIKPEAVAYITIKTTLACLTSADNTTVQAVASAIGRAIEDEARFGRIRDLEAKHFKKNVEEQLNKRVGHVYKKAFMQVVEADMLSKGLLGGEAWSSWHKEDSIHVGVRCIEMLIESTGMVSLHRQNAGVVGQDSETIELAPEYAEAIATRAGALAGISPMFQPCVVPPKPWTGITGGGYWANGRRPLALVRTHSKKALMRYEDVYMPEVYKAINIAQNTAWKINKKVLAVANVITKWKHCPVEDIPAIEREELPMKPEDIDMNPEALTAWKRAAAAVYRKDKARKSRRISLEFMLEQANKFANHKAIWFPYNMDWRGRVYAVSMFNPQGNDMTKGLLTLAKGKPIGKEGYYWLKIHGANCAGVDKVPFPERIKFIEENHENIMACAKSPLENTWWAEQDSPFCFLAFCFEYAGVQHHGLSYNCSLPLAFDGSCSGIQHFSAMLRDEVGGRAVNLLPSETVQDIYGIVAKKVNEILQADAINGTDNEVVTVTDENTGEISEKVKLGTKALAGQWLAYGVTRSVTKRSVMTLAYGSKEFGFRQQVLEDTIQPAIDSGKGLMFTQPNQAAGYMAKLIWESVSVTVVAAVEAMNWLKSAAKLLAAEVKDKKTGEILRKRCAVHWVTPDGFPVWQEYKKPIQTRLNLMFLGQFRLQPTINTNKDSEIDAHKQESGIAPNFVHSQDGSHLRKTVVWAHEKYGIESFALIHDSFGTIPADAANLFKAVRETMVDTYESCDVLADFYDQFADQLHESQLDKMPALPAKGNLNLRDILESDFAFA", "assay_type": "biochemical", "conditions": "for effect of 3′ blocked adenosine derivatives on normal RNA transcription and on CoA-RNA transcription: 4 mM, without coenzymes or in the presence of 4 mM De-P-CoA; for relative CoA-RNA yield / total RNA yield relative to RNA obtained at 1 mM ATP and 0 mM De-P-CoA: 4 mM De-P-CoA", "source_text": "To physically separate CoA-RNA from pppRNA by PAGE, a different RNA sequence of 35 nucleotides was designed to allow a specific DNazyme (Santoro, S. W. and Joyce, G. F., Proc. Natl. Acad. Sci. USA 94: 4262-4266 (1997)) cleavage after transcription. Two DNA oligonucleotides with the sequence of 5′-[…]-3′ (SEQ ID NO:2) and 5′-[…]-3′ (SEQ ID NO:3) were used to construct (by PCR) a DNA duplex template, from which a 35 nt RNA sequence of 5′-[…]-3′ (SEQ ID NO:4) was transcribed. A DNazyme (with the sequence of 5′-[…]-3′; SEQ ID NO:5) was then used to specifically cleave off a portion of the 3′ heterogeneous ends of both CoA-RNA and pppRNA, yielding a homogeneous length of 25 nt CoA-RNA and pppRNA. Similar transcription conditions were used with the exception of different concentrations of ATP. Transcribed RNA (about […]) was incubated with […] DNazyme for 60 minutes at 37° C. in 50 mM MgCl2 and 50 mM Tris, pH 8.0. RNA was then analyzed by 12% denaturing PAGE.\n(§1) After polyacrylamide gel electrophoresis, individual RNA bands were visualized through phosphorimaging (Molecular Imager, Bio-Rad Laboratories, Hercules, Calif.). Quantitation of different RNA bands was achieved through profile integration after horizontal background subtraction. Coenzyme-RNA (CoE-RNA) yields were calculated based on relative intensity of pppRNA bands (N, N+1, and N+2 bands) in the absence of coenzymes. To confirm the validity of the calculation, DNazyme-cleaved pppRNA and CoA-RNA were quantitated directly after gel resolution of CoA-RNA from pppRNA. In addition, CoA-RNA yield was determined independently by thiopropyl Sepharose 6B affinity chromatography based on its free sulfhydryl group.\nTo physically resolve coenzyme-RNA from pppRNA by gel, a DNazyme (Santoro, S. W., and Joyce, G. F., Proc. Natl. Acad. Sci. USA, 94: 4262-4266 (1997)) was designed to trim off the 3′ heterogeneous ends of RNA."}, "T7 RNA polymerase [2]": {"biological_target": "T1, T7 RNA polymerase", "experiment": "Coenzyme-initiated in vitro transcription of CoES7 RNA under T7 class II promoter, PAGE and phosphorimaging", "assay_type": "biochemical", "conditions": "for relative intensity of N band RNA / relative intensity of N+1 band RNA / relative intensity of N+2 band RNA: 4 mM coenzyme, 1 mM each NTP, CoES7 RNA, 2 hours 37° C.; for total RNA yields versus standard transcription conditions: higher than 8 mM coenzyme", "procedure": "Transcription promoter sequence was derived from the T7 class II promoter (φ2.5) (FIG. 1) (Dunn, J. J., and Studier, F. W., J. Mol. Biol. 166: 477-535 (1983)). The RNA sequence was from a previously isolated coenzyme-synthesizing ribozyme (Huang, F., et al., Biochemistry 39: 15548-15555 (2000)), CoES7, with the sequence of 5′-[…]-3′ (SEQ ID NO:1). Transcription was carried out under the following standard conditions: 1 mM each of ATP, UTP, GTP, and CTP, 40 mM Tris (pH 8.0), 6 mM MgCl2, 2 mM spermidine, 0.01% Triton X-100, 5 mM DTT, 0.2 unit/mL RNase inhibitor, […] DNA templates, and 5 unit/mL T7 RNA polymerase. In addition, different concentrations of coenzymes, De-P-CoA, NAD, and FAD were included to initiate transcription. For quantitation purposes, [α-^32P]ATP (NEN Life Science, Boston, Mass.) was also added to transcription solutions to internally label RNA transcripts. All transcription reactions were allowed to proceed for 2 hours at 37° C. before product analysis by 8% denaturing PAGE.\nTranscription of CoES7 RNA was carried out under the standard conditions, with the addition of various concentrations of coenzymes. After fractionation by PAGE, different RNA bands became clearly visible. In the absence of any coenzymes (lane 1), transcription produced three pppRNA bands in decreasing order: the full-length RNA transcripts (N band), N+1, and N+2 bands (with one and two extra nucleotides added at the 3′ end of full-length RNA). Their relative yields were 59%, 35%, and 6% (from N to N+2), respectively. When one of the three coenzymes, De-P-CoA, NAD, and FAD, was added to the transcription solution (lanes 2-4), no additional RNA bands were generated. However, the relative intensity of the three RNA bands in each lane changed considerably when compared with that of lane 1. […] In the presence of 4 mM De-P-CoA (lane 2), the relative intensity of the three bands changed to 40%, 45%, and 15% (from N to N+2). The relative RNA band intensity were 30%, 49%, and 21% for both NAD- and FAD-initiated transcription (lanes 3 and 4). These changes in RNA band relative intensity resulted from the incorporation of coenzymes (De-P-CoA, NAD, and FAD) into RNA. When one of these coenzymes is incorporated to the 5′ end of RNA, the coenzyme-linked RNA (CoE-RNA) behaves as if an extra normal nucleotide is added to the pppRNA. Therefore, the N band CoE-RNA co-migrates with the N+1 band pppRNA, while the N+1 band CoE-RNA and the N+2 band pppRNA run together in the gel. The N+2 band CoE-RNA was barely visible because of its low intensity. To confirm the incorporation of coenzymes into RNA under the class II promoter, three independent experiments were performed: resolution of CoA-RNA from pppRNA by gel after DNazyme cleavage, measurement of free sulfhydryl group of CoA-RNA, and fluorescence emission spectrum of FAD-RNA."}, "T7 RNA polymerase [3]": {"biological_target": "T1, T7 RNA polymerase", "conditions": "CoES7 RNA prepared under 1 mM ATP and 4 mM De-P-CoA", "procedure": "as §1"}, "[4]": {"experiment": "Fluorescence emission spectra of FAD-RNA and free FAD", "assay_type": "physicochemical", "conditions": "0.5 M sodium acetate, pH 5.2"}, "[5]": {"conditions": "different coenzyme concentrations (De-P-CoA: low concentrations; FAD: especially >4 mM), FIGS. 4A-4C"}, "[6]": {"conditions": "0.2-0.5 mM ATP and 4 mM De-P-CoA"}}, "note": "Read-outs that look alike come from different tables or passages of the source."}
{"smiles": "Nc1ncnc2c1ncn2[C@@H]1O[C@H](CO)[C@@H](OP(=O)(O)O)[C@H]1O", "note": "[3′ AMP]", "values": [{"measurement": "effect of 3′ blocked adenosine derivatives on normal RNA transcription and on CoA-RNA transcription", "setting": "T7 RNA polymerase [1]", "result": "neither CoA nor 3′ AMP has detectable effect"}]}
{"smiles": "CC(C)(COP(=O)(O)OP(=O)(O)OC[C@H]1O[C@@H](n2cnc3c(N)ncnc32)[C@H](O)[C@@H]1O)[C@@H](O)C(=O)NCCC(=O)NCCS", "note": "[De-P-CoA, 3′-Dephospho coenzyme A]", "values": [{"measurement": "relative intensity of N band RNA", "setting": "T7 RNA polymerase [2]", "result": 40, "unit": "%"}, {"measurement": "relative intensity of N+1 band RNA", "setting": "T7 RNA polymerase [2]", "result": 45, "unit": "%"}, {"measurement": "relative intensity of N+2 band RNA", "setting": "T7 RNA polymerase [2]", "result": 15, "unit": "%"}, {"measurement": "coenzyme-RNA (CoE-RNA) yield over total RNA synthesized", "setting": "T7 RNA polymerase [2]; 4-8 mM coenzyme, standard transcription conditions", "result": "30-35%"}, {"measurement": "effect on total RNA yield (transcription)", "setting": "T7 RNA polymerase [2]; [5]", "result": "stimulates transcription to some extent"}, {"measurement": "effect on total RNA yield (transcription)", "setting": "T7 RNA polymerase [2]; higher concentrations of De-P-CoA", "result": "eventually becomes inhibitory"}, {"measurement": "total RNA yields versus standard transcription conditions", "setting": "T7 RNA polymerase [2]", "result": "significantly lower"}, {"measurement": "relative CoA-RNA yield", "setting": "T7 RNA polymerase [1]; 0.1 mM ATP", "result": 56, "unit": "%"}, {"measurement": "total RNA yield relative to RNA obtained at 1 mM ATP and 0 mM De-P-CoA", "setting": "T7 RNA polymerase [1]; 0.1 mM ATP", "result": 12, "unit": "%"}, {"measurement": "relative CoA-RNA yield", "setting": "T7 RNA polymerase [1]; 0.2 mM ATP", "result": 52, "unit": "%"}, {"measurement": "total RNA yield relative to RNA obtained at 1 mM ATP and 0 mM De-P-CoA", "setting": "T7 RNA polymerase [1]; 0.2 mM ATP", "result": 44, "unit": "%"}, {"measurement": "relative CoA-RNA yield", "setting": "T7 RNA polymerase [1]; 0.5 mM ATP", "result": 46, "unit": "%"}, {"measurement": "total RNA yield relative to RNA obtained at 1 mM ATP and 0 mM De-P-CoA", "setting": "T7 RNA polymerase [1]; 0.5 mM ATP", "result": 85, "unit": "%"}, {"measurement": "total RNA yield relative to RNA obtained at 1 mM ATP and 0 mM De-P-CoA", "setting": "T7 RNA polymerase [1]; 1 mM ATP", "result": 110, "unit": "%"}, {"measurement": "relative CoA-RNA yield", "setting": "T7 RNA polymerase [1]; 1 mM ATP, 1 mM GTP, CTP, UTP", "result": 33, "unit": "%"}, {"measurement": "CoA-RNA produced by transcription", "setting": "T7 RNA polymerase [1]; [6]", "result": "over 50%"}, {"measurement": "reduction in total RNA yields", "setting": "T7 RNA polymerase [1]; [6]", "result": "20-50%"}, {"measurement": "loaded RNA retained on thiopropyl Sepharose 6B column (CoA-RNA yield)", "setting": "T7 RNA polymerase [3]", "result": "30-35%"}]}
{"smiles": "CC(C)(COP(=O)(O)OP(=O)(O)OC[C@H]1O[C@@H](n2cnc3c(N)ncnc32)[C@H](O)[C@@H]1OP(=O)(O)O)[C@@H](O)C(=O)NCCC(=O)NCCS", "note": "[CoA, coenzyme A]", "values": [{"measurement": "effect of 3′ blocked adenosine derivatives on normal RNA transcription and on CoA-RNA transcription", "setting": "T7 RNA polymerase [1]", "result": "neither CoA nor 3′ AMP has detectable effect"}]}
{"smiles": "Cc1cc2nc3c(=O)[nH]c(=O)nc-3n(C[C@H](O)[C@H](O)[C@H](O)COP(=O)(O)OP(=O)(O)OC[C@H]3O[C@@H](n4cnc5c(N)ncnc54)[C@H](O)[C@@H]3O)c2cc1C", "note": "[FAD, flavin adenine dinucleotide]", "values": [{"measurement": "relative intensity of N band RNA", "setting": "T7 RNA polymerase [2]", "result": 30, "unit": "%"}, {"measurement": "relative intensity of N+1 band RNA", "setting": "T7 RNA polymerase [2]", "result": 49, "unit": "%"}, {"measurement": "relative intensity of N+2 band RNA", "setting": "T7 RNA polymerase [2]", "result": 21, "unit": "%"}, {"measurement": "effect on total RNA yield (transcription)", "setting": "T7 RNA polymerase [2]; [5]", "result": "somewhat inhibitory effect"}, {"measurement": "total RNA yields versus standard transcription conditions", "setting": "T7 RNA polymerase [2]", "result": "significantly lower"}, {"measurement": "enhancement of fluorescence intensity by urea", "setting": "[4]; 4 M urea", "result": 1.7, "unit": "fold"}, {"measurement": "enhancement of fluorescence intensity by urea", "setting": "[4]; 7 M urea", "result": 2.7, "unit": "fold"}]}
